Data published in patent US8680113B2, “BMI-1 protein expression modulators” (PTC Therapeutics, Inc., priority 2008, dated 2014).

Test system: Bmi-1
Assay: Sandwich ELISA Assay (Bmi-1 ELISA in HT-1080 cells)
Type: cell-based, human
Outline: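 HT-1080 cells (8000/well) were treated with compounds in 0.5% final DMSO for 40-48 h at 37°C and then lysed. Bmi-1 in lysates was measured by sandwich ELISA: overnight capture at 4°C on mouse monoclonal, rabbit anti-Bmi-1 detection, HRP anti-rabbit, TMB. OD450 was read with an OD570 reference against a recombinant GST-Bmi-1 standard curve (0-8000 pg/mL).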

SMILES | IC50 [nM]
Cc1nc2ncccn2c1-c1ccnc(Nc2ccc3c(c2)OCO3)n1 [Cpd 124, N-(1,3-benzodioxol-5-yl)-4-(2-methylimidazo[1,2-a]pyrimidin-3-yl)pyrimidin-2-amine] | < 500
Cc1nc2ncccn2c1-c1ccnc(N(C)c2ccc(I)cc2)n1 [Cpd 125, N-(4-iodophenyl)-N-methyl-4-(2-methylimidazo[1,2-a]pyrimidin-3-yl)pyrimidin-2-amine] | < 500
Cc1nc2ncccn2c1-c1ccnc(Nc2ccc(Br)cc2)n1 [Cpd 126, N-(4-bromophenyl)-4-(2-methylimidazo[1,2-a]pyrimidin-3-yl)pyrimidin-2-amine] | < 500
Cc1nc2ccccn2c1-c1ccnc(Nc2cccc(Br)c2)n1 [Cpd 127, N-(3-bromophenyl)-4-(2-methylimidazo[1,2-a]pyridin-3-yl)pyrimidin-2-amine] | < 500
Cc1nc2ccccn2c1-c1ccnc(Nc2ccc(N(C)C)cc2)n1 [Cpd 129, N,N-dimethyl-N′-[4-(2-methylimidazo[1,2-a]pyridin-3-yl)pyrimidin-2-yl]benzene-1,4-diamine] | < 500
CCN(CC)c1ccc(Nc2nccc(-c3c(C)nc4ccccn34)n2)cc1 [Cpd 130, N,N-diethyl-N′-[4-(2-methylimidazo[1,2-a]pyridin-3-yl)pyrimidin-2-yl]benzene-1,4-diamine] | < 500
CC(=O)c1ccc(Nc2nccc(-c3c(C)nc4ncccn34)n2)cc1 [Cpd 131, 1-(4-{[4-(2-methylimidazo[1,2-a]pyrimidin-3-yl)pyrimidin-2-yl]amino}phenyl)ethanone] | < 500
Cc1nc2ccc(Cl)cn2c1-c1csc(Nc2ccc(Br)cc2Cl)n1 [Cpd 132, N-(4-bromo-2-chlorophenyl)-4-(6-chloro-2-methylimidazo[1,2-a]pyridin-3-yl)-1,3-thiazol-2-amine] | < 500
Cc1nc2ccc(Cl)cn2c1-c1csc(Nc2ccccc2)n1 [Cpd 133, 4-(6-chloro-2-methylimidazo[1,2-a]pyridin-3-yl)-N-phenyl-1,3-thiazol-2-amine] | < 500
Clc1ccc2ncc(-c3csc(Nc4c(Br)cc(Br)cc4Br)n3)n2c1 [Cpd 135, 4-(6-chloroimidazo[1,2-a]pyridin-3-yl)-N-(2,4,6-tribromophenyl)-1,3-thiazol-2-amine] | < 500
Clc1cc(Cl)c(Nc2nc(-c3cnc4ccc(Cl)cn34)cs2)c(Cl)c1 [Cpd 136, 4-(6-chloroimidazo[1,2-a]pyridin-3-yl)-N-(2,4,6-trichlorophenyl)-1,3-thiazol-2-amine] | 500 to 1000
Cc1nc2ccccn2c1-c1ccnc(N(C)c2ccc(N(C)C)cc2)n1 [Cpd 137, N,N,N′-trimethyl-N′-[4-(2-methylimidazo[1,2-a]pyridin-3-yl)pyrimidin-2-yl]benzene-1,4-diamine] | < 500
CCN(CC)c1ccc(N(C)c2nccc(-c3c(C)nc4ccccn34)n2)cc1 [Cpd 138, N,N-diethyl-N′-methyl-N′-[4-(2-methylimidazo[1,2-a]pyridin-3-yl)pyrimidin-2-yl]benzene-1,4-diamine] | < 500
Cc1nc2ccccn2c1-c1ccnc(N(C)c2ccc3c(c2)OCO3)n1 [Cpd 139, N-(1,3-benzodioxol-5-yl)-N-methyl-4-(2-methylimidazo[1,2-a]pyridin-3-yl)pyrimidin-2-amine] | < 500
Cc1nc2ncccn2c1-c1ccnc(N(C)c2ccccc2Cl)n1 [Cpd 140, N-(2-chlorophenyl)-N-methyl-4-(2-methylimidazo[1,2-a]pyrimidin-3-yl)pyrimidin-2-amine] | < 500
COc1cc(C)c(Nc2nccc(-c3c(C)nc4ccccn34)n2)c(C)c1 [Cpd 141, N-(4-methoxy-2,6-dimethylphenyl)-4-(2-methylimidazo[1,2-a]pyridin-3-yl)pyrimidin-2-amine] | < 500
CCOc1ccc(N(C)c2nccc(-c3c(C)nc4ccccn34)n2)cc1 [Cpd 142, N-(4-ethoxyphenyl)-N-methyl-4-(2-methylimidazo[1,2-a]pyridin-3-yl)pyrimidin-2-amine] | < 500
Cc1nc2ccccn2c1-c1ccnc(N(C)c2ccc(I)cc2)n1 [Cpd 143, N-(4-iodophenyl)-N-methyl-4-(2-methylimidazo[1,2-a]pyridin-3-yl)pyrimidin-2-amine] | 500 to 1000
CCc1nc2ncccn2c1-c1csc(Nc2ccc(OC)cc2)n1 [Cpd 144, 4-(2-ethylimidazo[1,2-a]pyrimidin-3-yl)-N-(4-methoxyphenyl)-1,3-thiazol-2-amine] | < 500
CCc1nc2ncccn2c1-c1csc(Nc2ccc(N(C)C)cc2)n1 [Cpd 145, N′-[4-(2-ethylimidazo[1,2-a]pyrimidin-3-yl)-1,3-thiazol-2-yl]-N,N-dimethylbenzene-1,4-diamine] | < 500
CCc1nc2ncccn2c1-c1csc(Nc2c(Br)cc(OC)cc2Br)n1 [Cpd 146, N-(2,6-dibromo-4-methoxyphenyl)-4-(2-ethylimidazo[1,2-a]pyrimidin-3-yl)-1,3-thiazol-2-amine] | < 500

SMILES | IC50 [nM]
CCc1nc2ncccn2c1-c1csc(Nc2ccc(Cl)cc2)n1 [Cpd 147, N-(4-chlorophenyl)-4-(2-ethylimidazo[1,2-a]pyrimidin-3-yl)-1,3-thiazol-2-amine] | < 500
CCc1nc2ncccn2c1-c1csc(Nc2ccc(Br)cc2)n1 [Cpd 148, N-(4-bromophenyl)-4-(2-ethylimidazo[1,2-a]pyrimidin-3-yl)-1,3-thiazol-2-amine] | < 500
CCc1nc2ncccn2c1-c1csc(Nc2ccc(I)cc2)n1 [Cpd 149, 4-(2-ethylimidazo[1,2-a]pyrimidin-3-yl)-N-(4-iodophenyl)-1,3-thiazol-2-amine] | < 500
CCc1nc2ncccn2c1-c1csc(Nc2ccc(C(C)=O)cc2)n1 [Cpd 150, 1-(4-{[4-(2-ethylimidazo[1,2-a]pyrimidin-3-yl)-1,3-thiazol-2-yl]amino}phenyl)ethanone] | < 500
CCc1nc2ncccn2c1-c1csc(Nc2ccc3c(c2)OCO3)n1 [Cpd 151, N-(1,3-benzodioxol-5-yl)-4-(2-ethylimidazo[1,2-a]pyrimidin-3-yl)-1,3-thiazol-2-amine] | < 500
CCc1nc2ncccn2c1-c1csc(Nc2ccc(OC)c(F)c2)n1 [Cpd 152, 4-(2-ethylimidazo[1,2-a]pyrimidin-3-yl)-N-(3-fluoro-4-methoxyphenyl)-1,3-thiazol-2-amine] | < 500
CCc1nc2ncccn2c1-c1csc(Nc2ccc(OC)c(Cl)c2)n1 [Cpd 153, N-(3-chloro-4-methoxyphenyl)-4-(2-ethylimidazo[1,2-a]pyrimidin-3-yl)-1,3-thiazol-2-amine] | < 500
FC(F)(F)c1nc2ncccn2c1-c1csc(Nc2ccc3c(c2)OCO3)n1 [Cpd 154, N-(1,3-benzodioxol-5-yl)-4-[2-(trifluoromethyl)imidazo[1,2-a]pyrimidin-3-yl]-1,3-thiazol-2-amine] | < 500
COc1ccc(Nc2nc(-c3c(C)nc4ccc(F)cn34)cs2)cc1F [Cpd 155, N-(3-fluoro-4-methoxyphenyl)-4-(6-fluoro-2-methylimidazo[1,2-a]pyridin-3-yl)-1,3-thiazol-2-amine] | < 500
Cc1nc2ccc(F)cn2c1-c1csc(Nc2ccc(I)cc2)n1 [Cpd 156, 4-(6-fluoro-2-methylimidazo[1,2-a]pyridine-3-yl)-N-(4-iodophenyl)-1,3-thiazol-2-amine] | < 500
Cc1nc2ccc(F)cn2c1-c1csc(Nc2ccc(N(C)C)cc2)n1 [Cpd 157, N′-[4-(6-fluoro-2-methylimidazo[1,2-a]pyridin-3-yl)-1,3-thiazol-2-yl]-N,N-dimethylbenzene-1,4-diamine] | < 500
Cc1nc2ccc(F)cn2c1-c1csc(Nc2ccc3c(c2)OCO3)n1 [Cpd 158, N-(1,3-benzodioxol-5-yl)-4-(6-fluoro-2-methylimidazo[1,2-a]pyridin-3-yl)-1,3-thiazol-2-amine] | < 500
CC(=O)c1ccc(Nc2nc(-c3c(C)nc4ccc(F)cn34)cs2)cc1 [Cpd 159, 1-(4-{[4-(6-fluoro-2-methylimidazo[1,2-a]pyridin-3-yl)-1,3-thiazol-2-yl]amino}phenyl)ethanone] | < 500
COc1ccc(Nc2nc(-c3c(C)nc4ccc(F)cn34)cs2)cc1 [Cpd 160, 4-(6-fluoro-2-methylimidazo[1,2-a]pyridin-3-yl)-N-(4-methoxyphenyl)-1,3-thiazol-2-amine] | < 500
Cc1nc2ccc(F)cn2c1-c1csc(Nc2ccc(Cl)cc2)n1 [Cpd 161, N-(4-chlorophenyl)-4-(6-fluoro-2-methylimidazo[1,2-a]pyridin-3-yl)-1,3-thiazol-2-amine] | < 500
Cc1nc2ccc(F)cn2c1-c1csc(Nc2ccc(Br)cc2)n1 [Cpd 162, N-(4-bromophenyl)-4-(6-fluoro-2-methylimidazo[1,2-a]pyridin-3-yl)-1,3-thiazol-2-amine] | < 500
CCOc1ccc(Nc2nc(-c3c(C)nc4ccc(F)cn34)cs2)cc1 [Cpd 163, N-(4-ethoxyphenyl)-4-(6-fluoro-2-methylimidazo[1,2-a]pyridin-3-yl)-1,3-thiazol-2-amine] | < 500
Cc1nc2ccc(F)cn2c1-c1csc(Nc2ccc(C(C)(C)C)cc2)n1 [Cpd 164, N-(4-tert-butylphenyl)-4-(6-fluoro-2-methylimidazo[1,2-a]pyridin-3-yl)-1,3-thiazol-2-amine] | < 500
Cc1nc2ccc(F)cn2c1-c1csc(Nc2ccc(Br)cc2Cl)n1 [Cpd 165, N-(4-bromo-2-chlorophenyl)-4-(6-fluoro-2-methylimidazo[1,2-a]pyridin-3-yl)-1,3-thiazol-2-amine] | < 500
Fc1ccccc1Nc1nccc(-c2cnc3ccccn23)n1 [Cpd 166, N-(2-fluorophenyl)-4-(imidazo[1,2-a]pyridin-3-yl)pyrimidin-2-amine] | < 500
CC(=O)c1ccc(N(C)c2nccc(-c3c(C)nc4ccccn34)n2)cc1 [Cpd 167, 1-(4-{methyl[4-(2-methylimidazo[1,2-a]pyridin-3-yl)pyrimidin-2-yl]amino}phenyl)ethanone] | < 500
